In data set [1] the test system is rumen microorganisms. Description: Degradability of DFA III and DFA IV in the rumen (incubation with rumen liquid inoculum). It counts as in vitro ADME, Holstein steer and cow. As to conditions: 400 mg/dl in culture solution, 39° C., 0 to 24 hours. The source says:
In ruminants, for DFA III and DFA IV to accelerate calcium absorption, they have to reach intestines by avoiding degradation thereof in the rumen with microorganisms. Accordingly, degradability of DFA III and DFA IV in the rumen was examined.
A rumen liquid was collected from each of a rumen cannula-fitted Holstein steer to which 4 kg of a concentrate was supplied in consideration of controlling nutrition of a dry cow and which was caused to freely take hay and a cow in which a milk yield was 30 kg and a rate of a concentrate in a supplied feed was 55%. The liquid was filtered through a four-fold gauze to form an inoculum.
As a buffer, a 0.25 M phosphate buffer (KH2PO4 6.8045 g+Na2HPO4.12H2O 26.8605 g/500 ml, pH 7.0) was used, and 1 g of DFA III or DFA IV per 100 ml of this buffer was added.
30 ml of the inoculum and 20 ml of the buffer were added to a 200-ml conical flask. […] In 0, 1, 2, 4, 8, 12 and 24 hours of the culturing, the culture solution was collected from the flask, and analyzed.
The culture solution in the flask was stirred. After 20 ml of the culture solution was collected, 0.1 ml of sulfosalicylic acid (20% solution was added for deproteinization. After centrifugation by 8,000 rotations for 10 minutes, the solution was filtered with a filter paper of 0.45 μm, and DFA III and DFA IV were analyzed by liquid chromatography. […]

The subject of data set [2] is Holstein cows. Briefly: Effect of supply of DFA III and DFA IV on calcium metabolism, lactation and urine excretion amount of cows. The data set is classed as in vivo, cow. Particulars: supplied feeds and 100 g of DFA; for Excretion amount of calcium in urine / Milk fat rate / Milk protein rate / Milk yield: main period of 5 days. The source says:
The effect of supply of DFA III and DFA IV on calcium metabolism, lactation and a urine excretion amount of cows was examined.
Nine Holstein cows (2 to 4 calvings, 90 to 120 days after calving, average body weight 642 kg, average milk yield 36 kg) were divided into three groups, and subjected to a test by 3×3 Latin squares with one period of 15 days (preliminary period of 10 days and main period of 5 days).
Regarding supplied feeds for a day, a grass silage, a cone silage and a beat pulp were used in fixed amounts of 3, 4 and 2 kg in terms of a dry weight respectively, and an amount of a concentrate (crude protein content 18% TDN content 74%) was ⅓ the milk yield. Further, a mineral agent and a vitamin agent were not supplied, and an insufficient feed for each cow was supplemented by supplying hay. These supplied feeds have the same contents in all cows, and they were caused to freely drink water.
The foregoing supply only was applied to a control group Supplied feeds and 100 g of DFA III were applied to a DFA III group, and supplied feeds and 100 g of DFA IV were applied to a DFA IV group.
The cows were accommodated in a metabolism test laboratory, and milking was conducted twice at 5 o'clock and 17 o'clock. The milk yield was measured and milk composition were analyzed for five days as the main period. The total amount of feces and urine was recovered for five days as the main period, and the fixed amounts thereof were mixed and subjected to analysis.
As is apparent from the results, no great difference was found among the groups in the dry matter intake and the calcium intake. The milk yield was increased in the DFA III and DFA IV groups by approximately 1 kg in comparison to the control group. No difference was found either among the groups in the milk fat rate and the milk protein rate. […] In the table, TDN indicates a total amount of a digestible nutrient.

Data set [3] deals with Holstein calving cows. Description: Influence of DFA III and DFA IV on calcium concentration in blood in calving of cows (OCPC method). It counts as in vivo, cow. As to conditions: for Increase of calcium concentration in blood from immediately after calving: in 6 hours, 100 g orally. As for the experimental part:
The influence of DFA III and DFA IV on the calcium concentration in blood in calving of cows was examined.
(§1) As test cows, 15 Holstein calving cows with two or more calvings were used, and divided into three groups each consisting of 5 cows. Immediately after calving, the blood was sampled from the tail root. 300 ml of warm water was orally administered to the control group. 100 g of DFA III and 100 g of DFA IV each dissolved in 250 ml of warm water were orally administered to the DFA III group and the DFA IV group respectively. The blood was sampled from the tail root after 6 hours and 60 hours from the blood sampling immediately after calving. The degree of the udder edema was also confirmed by palpation.
Regarding the feeds supplied after calving, the cows were caused to freely take 20 kg/day of TMR containing a grass silage, a corn silage and a concentrate (hereinafter referred to as a mixed feed: forage rate 47.8%), 4 kg of a concentrate and hay. Conditions of calculating the requirement are as follow: day after calving—3, 2 calvings, body weight—612 kg, milk yield—20 kg, milk fat rate—4.0%, and milk protein rate—3.2%. NEl indicates a net energy of lactation, and efNDF indicates an effective neutral detergent insoluble fiber.
(§2) The blood was centrifuged at 3,000 rpm for 10 minutes, and the serum portion was stored at −30° C. until analysis. Calcium was analyzed by the OCPC method. The degree of udder was examined by palpation. A heavy degree was defined as 4, a medium degree as 3, a light degree as 2 and a normal degree as 1 respectively.

Data set [4] has as its system Holstein calving cows. Briefly: Degree of udder edema by palpation after oral administration of DFA III and DFA IV. The data set is classed as in vivo, cow. Particulars: time 0, before administration; heavy 4, medium 3, light 2, normal 1. As for the experimental part:
as §1, §2

The test system of data set [5] is Holstein calving cows. Briefly: Effect of DFA III and calcium and vitamin D on calcium concentration in blood at the time of calving of cows. It counts as in vivo, cow. On the procedure: The effect of DFA III and calcium and vitamin D on the calcium concentration in blood at the time of calving of cows was examined.
As test cows, 15 Holstein calving cows with 2 or more calvings were used, and divided into three groups each consisting of 5 cows. Immediately after calving, the blood was sampled from the tall root. 100 g of DFA III dissolved in 250 ml of warm water was orally administered to the DFA III group. DFA III and calcium carbonate in amounts of 100 g each which were dissolved in 200 ml of warm water were orally administered to the DFA III+Ca group. DFA III and calcium carbonate in amounts of 100 a each and 10,000 IU of vitamin D which were dissolved in 200 ml of warm water were orally administered to the DFA III+Ca+VD group. The blood was sampled from the tail root after 6, 24 and 70 hours from the blood sampling immediately after calving.
The supply of the feeds and the analyses of the calcium concentration in blood were conducted in the same manner as in Example 3.

In data set [6] the test system is cows with 2 or more calvings. Description: Influence of DFA III supply at a dry period on calcium concentration in blood of cows after calving. The data set is classed as in vivo, cow. As for the experimental part:
The influence of the DFA III supply at a dry period on the calcium concentration in blood of cows after calving was tested in vivo using actual cows.
It has been so far considered that DFA III is administered to cows after caving which is effective for improving the calcium concentration in blood. On the other hand, the calcium concentration in blood is already decreased immediately after calving. As the decree of decrease is greater, vitality and appetite are weak and tend to be slowly recovered. Accordingly, DFA III was supplied at a dry period, and the influence of DFA III on the calcium concentration in blood immediately after calving was examined.
DFA III supply; DFA III (50 g/day) was supplied at a dry period from 3 weeks before an expected date of calving through calving.
Without DFA III supply; DFA III was not supplied before calving.
90 g of DFA III was, each time, supplied to both of the DFA III supply group and the group without DFA supply 0 hour and 6 hours after calving. At a dry period, 4 kg/day of a feed obtained by adding 12,000 IU of vitamin D to 4 kg of a feed was supplied to both the areas.
Cows with 2 or more calvings were used.
As DFA III supply cows, 10 cows which experienced calving after Apr. 30, 2004 were subjected to a test. As cows without DFA III supply, 38 cows which experienced calving from Jul. 14, 2002 through Apr. 18, 2004 and to which DFA III was not supplied at a dry period were used. Since the test started on Jul. 14, 2002, the test cows include 15 cows which experienced calving twice (8 DFA III supply cows and 7 cows without DFA III supply) during this period.
In dry cows, milking was stopped 2 months before an expected date of calving. Then, a concentrate (crude protein content 18%, TDN 72%, Ca 0.9% P 0.5%) was supplied in an amount of 2 kg/day until 3 weeks before an expected date of calving. A concentrate (crude protein content 20%, TDN 75%, Ca 0.2%, P 0.5%) was supplied in an amount of 4 kg/day from 3 weeks before an expected date of calving through calving. As another feed, the cows were caused to freely take hay (crude protein content from 6 to 8%, TDN from 45 to 55%, Ca from 0.2 to 0.3%, P 0.2%) during the entire dry period. A mixture obtained by adding 50 g of DFA III to 4 kg of the concentrate given 3 weeks before an expected date of calving was supplied to the DFA III supply cows. As the feeds supplied after calving, the cows were caused to freely take 20 kg/day of TMR containing a grass silage a corn silage and a concentrate (crude feed rate 47.8%), 4 kg of a concentrate (crude protein content 18%, TDN 72%, Ca 0.9%, P 0.5%) and hay.
In all cows, the blood was sampled from the tail root immediately after calving. Further, the blood sampling was performed from the same tail root after 6 hours, 24 hours and 72 hours from the blood sampling immediately after confinement (0 hour). In 0 hour and 6 hours for blood sampling, 90 g of DFA III, 100 g of calcium carbonate and 10,000 IU of vitamin D dissolved in warm water were orally administered each time.
The blood was centrifuged at 3,000 rpm for 10 minutes, and the serum portion was stored at −30° C. until analysis. The calcium concentration was measured by the OCPC method.

Data set [7] has as its system mice. Description: Acute toxicity test for 10 days using mice. It counts as in vivo. Particulars: oral administration, 1,000 mg/kg. The text has this: The dose of DFA III is not particularly limited to the foregoing range. When it is ingested over a long period of time for preservation of the health or for maintenance of the health, the dose may be lower than the foregoing range.

Setting [8] is: 6 hours after first blood sampling, 100 g orally immediately after calving.
The mark [9] stands for this setting: time 0: blood sampling immediately after calving, before oral administration of 100 g.

Each structure is given as a SMILES string.

`OCC12OCC3OC(CO)(OCC(O1)C(O)C2O)C(O)C3O` [DFA IV, di-D-fructfuranose-2,6:6.2′ dianhydride]: in data set [1] (any of the inoculums), the “Degradation in rumen culture solution” value was “not degraded”. Further, in data set [1] (liquid chromatography), the “Amount recovered in each incubation time” value is “approximately the total amounts thereof were recovered”. Besides, in data set [2], the “Increase of milk yield in comparison to the control group” value is “approximately 1 kg”, the “Excretion amount of calcium in urine” value is 4.0 g/day, the Milk fat rate was determined as 3.92% and the Milk protein rate is listed as 3.11%. The Milk yield in data set [2] is recorded as 35.2 kg/day. Also, the “Calcium concentration in blood” value in data set [3] (setting [8]) was determined as 8.0 mg/dL. In data set [3], the “Increase of calcium concentration in blood from immediately after calving” value is “approximately 1 mg/dl”. Moreover, the “Calcium concentration in blood” value in data set [3] (setting [9]) came to 7.1 mg/dL. Besides, the “Degree of udder edema” value in data set [4] came out at 3.1.

`OC[C@H]1O[C@@]2(CO[C@]3(CO)O[C@H](CO)[C@@H](O)[C@@H]3O2)[C@@H](O)[C@@H]1O` [DFA III, di-D-fructfuranose-1,2;2,3′ dianhydride]: the “Increase of milk yield in comparison to the control group” value in data set [2] is “approximately 1 kg”. For the same molecule, the “Excretion amount of calcium in urine” value in data set [2] came to 4.2 g/day. In addition, the Milk fat rate in data set [2] came out at 3.86%. For the same molecule, in data set [2], the Milk protein rate worked out at 3.15%. The Milk yield in data set [2] turned out to be 35.6 kg/day. Further, the “Calcium concentration in blood” value came out at 8.3 mg/dL in data set [3] (setting [8]); 8.0 mg/dL in data set [3] (60 hours after first blood sampling, 100 g orally immediately after calving); 7.3 mg/dL in data set [3] (setting [9]); 7.9 mg/dL in data set [5] (6 hours after first blood sampling, oral administration immediately after calving); 8.5 mg/dL in data set [5] (70 hours after first blood sampling, oral administration immediately after calving); 6.7 mg/dL in data set [5] (time 0: immediately after calving, before oral administration). For the same molecule, in data set [3], the “Increase of calcium concentration in blood from immediately after calving” value is “approximately 1 mg/dl”. For the same molecule, the “Degree of udder edema” value in data set [4] is 3.3. Besides, the “Increase of calcium concentration in blood in comparison to that immediately after calving” value in data set [5] (in 6 hours) came out at 1.2 mg/dL. For the same molecule, the “Calcium concentration in blood immediately after calving according to the parity” value in data set [6] (10 DFA III supply cows, DFA III at dry period) is “not decreased by increasing the parity”. The “Change in calcium concentration in blood after calving (0 to 72 hours)” value in data set [6] (Yes-Present calving, 8 cows, DFA III at dry period) is given as “shifted at a higher level than in the previous calving”. Moreover, in data set [6] (after calving, DFA III supplied at a dry period, 90 g DFA III, calcium carbonate and vitamin D at 0 and 6 hours), the “Time for calcium concentration in blood to reach the normal value (9 to 11 mg/dl)” value is on record as “approximately 6 hours”. Besides, in data set [6] (present calving with DFA III 50 g/day at dry period vs previous calving without), the “Increase of calcium concentration in blood immediately after calving in comparison to the previous calving” value came out at 1.0 mg/dL. For the same molecule, the “Calcium concentration in blood immediately after calving (average)” value in data set [6] (present calving, DFA III 50 g/day at a dry period from 3 weeks before expected date of calving) amounted to 8.1 mg/dL. The “Calcium concentration in blood immediately after calving, individual cows” value in data set [6] (present calving, DFA III supply at dry period) was no less than 7 mg/dL. Moreover, the “Death in acute toxicity test” value in data set [7] is “no death example was observed”.

For the origin of these results see US8048866B2, “Preventive and/or therapeutic agent for calcipenia” (Nippon Beet Sugar MFG., Co., Ltd., priority 2004, dated 2011).
